The target in one experiment is protein S (S:D614G) (Severe acute respiratory syndrome coronavirus 2, UniProt P0DTC2, D614G). More on the design: species or system SARS-CoV-2.
The target of experiment [1] is RBDBA.1 (SARS-CoV-2 spike RBD, Omicron BA.1 variant) (Severe acute respiratory syndrome coronavirus 2, UniProt P0DTC2, E484A/G339D/G446S/G496S/K417N/N440K/N501Y/Q493R/Q498R/S371L/S373P/S375F/S477N/T478K/Y505H). The class given is binding. To be noted: read-out: K D values RBDBA.1.
The target in experiment [2] is SWuhan (SARS-CoV-2 S protein HexaPro, Wuhan-Hu-1 variant) (Severe acute respiratory syndrome coronavirus 2, UniProt P0DTC2, A892P/A899P/A942P/F817P/K986P/V987P). The class given is binding. To be noted: read-out: K D values SWuhan.
In experiment [3] the target is RBDWuhan (SARS-CoV-2 spike RBD, Wuhan-Hu-1 variant) (Severe acute respiratory syndrome coronavirus 2, UniProt P0DTC2). In kind it is binding. Conditions: read-out: K D values RBDWuhan.
Experiment [4] has as its target SBA.1 (SARS-CoV-2 S protein, Omicron BA.1 variant) (Severe acute respiratory syndrome coronavirus 2, UniProt P0DTC2, A67V/D614G/D796Y/DEL143-145/DEL211-211/DEL69-70/E484A/G142D/G339D/G446S/G496S/H655Y/INS214EPE/K417N/L212I/L981F/N440K/N501Y/N679K/N764K/N856K/N969K/P681H/Q493R/Q498R/Q954H/S371L/S373P/S375F/S477N/T478K/T547K/T95I/Y505H, form not given). The class given is binding. Conditions: read-out: K D values SBA.1.

Consider `CCCCCCCCc1ccc(CCC(N)(CO)CO)cc1` [fingolimod], for which the “architecture of spikes by negative-stain electron microscopy” value at protein S (S:D614G) is “do not damage the architecture of the proteins”.

With catechin, the Kd is above 1000 µM in experiment [1], 927 ± 76 µM in experiment [2], above 1000 µM in experiment [3] and above 1000 µM in experiment [4].

These data come from paper PMC12423841 (ACS Omega, 2025).
